Patent US12012392B2, “Sulfonamide carboxamide compounds” (Inflazome Limited, priority 2017, dated 2024)

What was measured:
[1] = molecular target: T1, NLRP3 (Homo sapiens, UniProt Q96P20); experiment: Human whole blood IL1β release assay; assay type: cell-based; parameters: Plate out 80 μl of whole blood containing 1 μg/ml of LPS; from tissue; host or cells: human whole blood from healthy donors, LPS-primed, nigericin-stimulated; conditions: LPS 1 μg/ml, nigericin 10 μM, IL-1β AlphaLisa, read-out: HWB IC50
T1 sequence (Q96P20 whole entry): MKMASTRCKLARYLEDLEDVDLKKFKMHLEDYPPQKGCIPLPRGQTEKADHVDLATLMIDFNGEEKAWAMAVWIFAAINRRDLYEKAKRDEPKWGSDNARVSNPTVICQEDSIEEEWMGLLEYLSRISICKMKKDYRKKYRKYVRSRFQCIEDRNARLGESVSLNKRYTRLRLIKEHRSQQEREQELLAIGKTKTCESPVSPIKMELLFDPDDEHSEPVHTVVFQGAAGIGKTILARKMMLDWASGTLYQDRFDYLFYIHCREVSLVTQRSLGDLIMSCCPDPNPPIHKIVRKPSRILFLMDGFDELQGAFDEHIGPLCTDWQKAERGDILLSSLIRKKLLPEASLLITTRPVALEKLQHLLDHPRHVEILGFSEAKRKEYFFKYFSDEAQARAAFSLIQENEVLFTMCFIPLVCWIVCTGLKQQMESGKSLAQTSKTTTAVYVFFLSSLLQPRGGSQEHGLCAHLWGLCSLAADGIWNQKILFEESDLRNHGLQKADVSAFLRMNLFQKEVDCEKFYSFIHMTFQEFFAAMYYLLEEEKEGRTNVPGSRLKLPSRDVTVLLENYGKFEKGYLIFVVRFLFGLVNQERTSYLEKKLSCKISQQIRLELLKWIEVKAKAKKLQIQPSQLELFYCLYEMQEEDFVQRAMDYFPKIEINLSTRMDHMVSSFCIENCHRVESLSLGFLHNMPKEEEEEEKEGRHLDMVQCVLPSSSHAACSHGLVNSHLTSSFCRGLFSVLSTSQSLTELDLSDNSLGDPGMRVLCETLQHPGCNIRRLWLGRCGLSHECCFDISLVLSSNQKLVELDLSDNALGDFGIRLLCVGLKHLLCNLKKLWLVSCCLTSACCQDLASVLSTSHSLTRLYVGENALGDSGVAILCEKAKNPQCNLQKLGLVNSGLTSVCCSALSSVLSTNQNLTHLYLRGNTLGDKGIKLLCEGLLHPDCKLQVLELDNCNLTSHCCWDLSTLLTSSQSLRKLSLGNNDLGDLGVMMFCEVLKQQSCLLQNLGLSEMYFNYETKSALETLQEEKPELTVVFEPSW
Procedure: For systemic delivery, the ability to inhibit NLRP3 when the compounds are present within the bloodstream is of great importance. For this reason, the NLRP3 inhibitory activity of a number of compounds in human whole blood was investigated in accordance with the following protocol.
Human whole blood in Li-heparin tubes was obtained from healthy donors from a volunteer donor panel. • 1. Plate out 80 μl of whole blood containing 1 μg/ml of LPS in 96-well, clear bottom cell culture plate (Corning #3585) • 2. Add […] compound (8 points half-log dilution with 10 μM top dose) or vehicle (DMSO 0.1% FAC) to the appropriate wells • 3. Incubate for 3 hrs at 37° C., 5% CO2 • 4. Add 10 μl Nigericin (Sigma #N7143) (10 μM FAC) to all wells • 5. Incubate for 1 hr at 37° C., 5 CO2 • 6. At the end of the incubation period, spin plates at 300×g for 5 mins to pellet cells and remove 20 μl of supernatant and add to 96-well v-bottom plates for […] analysis (note: these plates containing the supernatants can be stored at −80° C. to be analysed at a later date) • 7. IL-1β was measured according to the manufacturer protocol (Perkin Elmer-AlphaLisa IL-1 Kit AL220F-5000) • 8. IC50 data is fitted to anon-linear regression equation (log inhibitor vs response-variable slope 4-parameters)

[2] = molecular target: T1, NLRP3; experiment: THP-1 cells pyroptosis assay; assay type: cell-based; parameters: Seed THP-1 cells (25,000 cells/well) containing 1.0 μg/ml LPS; host or cells: THP-1 cells, LPS-primed, nigericin-stimulated; conditions: LPS 1 μg/ml, nigericin 5 μM, resazurin read-out
Procedure: THP-1 cells (ATCC #TIB-202) were grown in RPMI containing L-glutamine (Gibco #11835) supplemented with 1 mM sodium pyruvate (Sigma #S8636) and penicillin (100 units/ml)/streptomycin (0.1 mg/ml) (Sigma #P4333) in 10% Fetal Bovine Serum (FBS) (Sigma #F0804). The cells were routinely passaged and grown to confluency (˜10^6 cells/ml). On the day of the experiment, THP-1 cells were harvested and resuspended into RPMI medium (without FBS). The cells were then counted and viability (>90%) checked by Trypan blue (Sigma #T8154). Appropriate dilutions were made to give a concentration of 625,000 cells/ml. To this diluted cell solution was added LPS (Sigma #L4524) to give a 1 μg/ml Final Assay Concentration (FAC). 40 μl of the final preparation was aliquoted into each well of a 96-well plate. The plate thus prepared was used for compound screening.
The following method step-by-step assay was followed for compound screening. • 1. Seed THP-1 cells (25,000 cells/well) containing 1.0 μg/ml LPS in 40 μl of RPMI medium (without FBS) in 96-well, black walled, clear bottom cell culture plates coated with poly-D-lysine (VWR #734-0317) • 2. Add 5 μl compound (8 points half-log dilution, with 10 μM top dose) or vehicle (DMSO 0.1% FAC) to the appropriate wells • 3. Incubate for 3 hrs at 37° C. and 5% CO2 • 4. Add 5 μl nigericin (Sigma #N7143) (FAC 5 μM) to all wells • 5. Incubate for 1 hr at 37° C. and 5% CO2 • 6. At the end of the incubation period, spin plates at 300×g for 3 mins and remove supernatant • 7. Then add 50 μl of resazurin (Sigma #R7017) (FAC 100 μM resazurin in RPMI medium without FBS) and incubate plates for a further 1-2 hrs at 37° C. and 5% CO2 • 8. Plates were read in an Envision reader at Ex 560 nm and Em 590 nm • 9. IC50 data is fitted to a non-linear regression equation (log inhibitor vs response-variable slope 4-parameters) 96-Well Plate Map

SMILES	IC50 [1]	IC50 [2]
CC(C)c1cc(Cl)cc(C(C)C)c1NC(=O)NS(=O)(=O)c1cc(C(=O)N(C)CCO)n(C)n1 [Example 82, 3-(N-((4-Chloro-2,6-diisopropylphenyl)carbamoyl)sulfamoyl)-N-(2-hydroxyethyl)-N,1-dimethyl-1H-pyrazole-5-carboxamide]	0.8 to 1.6 µM	0.04 to 0.16 µM
C[C@@H](CO)n1ccc(S(=O)(=O)NC(=O)Nc2c3c(cc4c2CCC4)CCC3)n1 [Example 15, (S)—N-((1,2,3,5,6,7-Hexahydro-s-indacen-4-yl)carbamoyl)-1-(1-hydroxypropan-2-yl)-1H-pyrazole-3-sulfonamide]	0.8 to 1.6 µM	0.04 to 0.16 µM
CC(C)n1nc(S(=O)(=O)NC(=O)Nc2c3c(cc4c2CCC4)CCC3)cc1C1(O)COC1 [Example 47, N-((1,2,3,5,6,7-Hexahydro-s-indacen-4-yl)carbamoyl)-5-(3-hydroxyoxetan-3-yl)-1-isopropyl-1H-pyrazole-3-sulfonamide]	0.4 to 0.8 µM	0.04 to 0.16 µM
O=C(Nc1c2c(cc3c1CCC3)CCC2)NS(=O)(=O)c1ccn(C2CC(O)C2)n1 (stereo not shown) [Example 34, N-((1,2,3,5,6,7-Hexahydro-s-indacen-4-yl)carbamoyl)-1-(3-hydroxycyclobutyl)-1H-pyrazole-3-sulfonamide]	0.8 to 1.6 µM	0.16 to 0.64 µM
COc1cc(-c2ccc3c(c2NC(=O)NS(=O)(=O)c2ccn(C(C)(C)CN4CC(OC)C4)n2)CCC3)ccn1 [Example 90]	< 0.4 µM	< 0.04 µM
COC1CN(CC(C)(C)n2ccc(S(=O)(=O)NC(=O)Nc3c4c(cc5c3CCC5)CCC4)n2)C1 [Example 107]	0.8 to 1.6 µM	0.04 to 0.16 µM
C[C@@H](O)Cn1ccc(S(=O)(=O)NC(=O)Nc2c(-c3ccnc(C#N)c3)ccc3c2CCC3)n1 [Example 92]	< 0.4 µM	< 0.04 µM
O=C(Nc1c2c(cc3c1CCC3)CCC2)NS(=O)(=O)c1ccn(C2CCOCC2)n1 [Example 31, N-((1,2,3,5,6,7-Hexahydro-s-indacen-4-yl)carbamoyl)-1-(tetrahydro-2H-pyran-4-yl)-1H-pyrazole-3-sulfonamide]	1.6 to 3.2 µM	0.16 to 0.64 µM
CN(CCCO)C(=O)c1cc(S(=O)(=O)NC(=O)Nc2c3c(cc4c2CCC4)CCC3)nn1C [Example 64, 3-(N-((1,2,3,5,6,7-Hexahydro-s-indacen-4-yl)carbamoyl)sulfamoyl)-N-(3-hydroxypropyl)-N,1-dimethyl-1H-pyrazole-5-carboxamide]	1.6 to 3.2 µM	0.16 to 0.64 µM
C[C@@H](O)Cn1cnc(S(=O)(=O)NC(=O)Nc2c3c(cc4c2CCC4)CCC3)n1 [Example 36, (R)—N-((1,2,3,5,6,7-Hexahydro-s-indacen-4-yl)carbamoyl)-1-(2-hydroxypropyl)-1H-1,2,4-triazole-3-sulfonamide]	0.4 to 0.8 µM	0.16 to 0.64 µM
CCOC1(c2cc(S(=O)(=O)NC(=O)Nc3c4c(cc5c3CCC5)CCC4)nn2C)COC1 [Example 41, 5-(3-Ethoxyoxetan-3-yl)-N-((1,2,3,5,6,7-hexahydro-s-indacen-4-yl)carbamoyl)-1-methyl-1H-pyrazole-3-sulfonamide]	0.4 to 0.8 µM	0.04 to 0.16 µM
O=C(Nc1c2c(cc3c1CCC3)CCC2)NS(=O)(=O)c1ccn(CC2CCCO2)n1 (single isomer, unassigned) [Example 5]	0.8 to 1.6 µM	0.04 to 0.16 µM
O=C(Nc1c2c(cc3c1CCC3)CCC2)NS(=O)(=O)c1ccn(CC2CCOC2)n1 (stereo not shown) [Example 6, N-((1,2,3,5,6,7-Hexahydro-s-indacen-4-yl)carbamoyl)-1-((tetrahydrofuran-3-yl)methyl)-1H-pyrazole-3-sulfonamide]	0.8 to 1.6 µM	0.04 to 0.16 µM
Cn1nc(S(=O)(=O)NC(=O)Nc2c3c(cc4c2CCC4)CCC3)cc1C1(F)COC1 [Example 49, 5-(3-Fluorooxetan-3-yl)-N-((1,2,3,5,6,7-hexahydro-s-indacen-4-yl)carbamoyl)-1-methyl-1H-pyrazole-3-sulfonamide]	0.8 to 1.6 µM	0.16 to 0.64 µM
Cn1nc(S(=O)(=O)NC(=O)Nc2c3c(cc4c2CCC4)CCC3)cc1CC(C)(C)O [Example 50, N-((1,2,3,5,6,7-Hexahydro-s-indacen-4-yl)carbamoyl)-5-(2-hydroxy-2-methylpropyl)-1-methyl-1H-pyrazole-3-sulfonamide]	0.8 to 1.6 µM	0.04 to 0.16 µM
O=C(Nc1c2c(cc3c1CCC3)CCC2)NS(=O)(=O)c1ccn(C[C@@H](O)CO)n1 [Example 104]	0.8 to 1.6 µM	0.16 to 0.64 µM
O=C(Nc1c2c(cc3c1CCC3)CCC2)NS(=O)(=O)c1ccn(C2COC2)n1 [Example 12, N-((1,2,3,5,6,7-Hexahydro-s-indacen-4-yl)carbamoyl)-1-(oxetan-3-yl)-1H-pyrazole-3-sulfonamide]	0.8 to 1.6 µM	0.16 to 0.64 µM
C[C@@H](O)Cn1ncc(S(=O)(=O)NC(=O)Nc2c3c(cc4c2CCC4)CCC3)n1 [Example 33, (R)—N-((1,2,3,5,6,7-Hexahydro-s-indacen-4-yl)carbamoyl)-2-(2-hydroxypropyl)-2H-1,2,3-triazole-4-sulfonamide]	0.8 to 1.6 µM	0.16 to 0.64 µM

Further lines, results first:

IC50 [1]	IC50 [2]	SMILES
1.6 to 3.2 µM	0.64 to 2.56 µM	CC(C)c1cc(F)cc(C(C)C)c1NC(=O)NS(=O)(=O)c1ccn(CC(C)(C)O)n1 [Example 18, N-((4-Fluoro-2,6-diisopropylphenyl)carbamoyl)-1-(2-hydroxy-2-methylpropyl)-1H-pyrazole-3-sulfonamide]
0.8 to 1.6 µM	0.16 to 0.64 µM	CC[C@@H](O)Cn1ccc(S(=O)(=O)NC(=O)Nc2c3c(cc4c2CCC4)CCC3)n1 [Example 25, (R)—N-((1,2,3,5,6,7-Hexahydro-s-indacen-4-yl)carbamoyl)-1-(2-hydroxybutyl)-1H-pyrazole-3-sulfonamide]
0.4 to 0.8 µM	0.04 to 0.16 µM	O=C(Nc1c2c(cc3c1CCC3)CCC2)NS(=O)(=O)c1ccn(CCCO)n1 [Example 7, N-((1,2,3,5,6,7-Hexahydro-s-indacen-4-yl)carbamoyl)-1-(3-hydroxypropyl)-1H-pyrazole-3-sulfonamide]
< 0.4 µM	0.16 to 0.64 µM	CC(C)c1cc(F)cc(-c2cccnc2)c1NC(=O)NS(=O)(=O)c1ccn(C[C@@H](C)O)n1 [Example 37, (R)—N-((4-Fluoro-2-isopropyl-6-(pyridin-3-yl)phenyl)carbamoyl)-1-(2-hydroxypropyl)-1H-pyrazole-3-sulfonamide]
< 0.4 µM	< 0.04 µM	CC(C)(O)Cn1ccc(S(=O)(=O)NC(=O)Nc2c(-c3ccnc(C#N)c3)ccc3c2CCC3)n1 [Example 93]
0.8 to 1.6 µM	0.04 to 0.16 µM	CC[C@H](O)Cn1ccc(S(=O)(=O)NC(=O)Nc2c3c(cc4c2CCC4)CCC3)n1 [Example 21, (S)—N-((1,2,3,5,6,7-Hexahydro-s-indacen-4-yl)carbamoyl)-1-(2-hydroxybutyl)-1H-pyrazole-3-sulfonamide]
0.4 to 0.8 µM	< 0.04 µM	COC(C)(C)Cn1ccc(S(=O)(=O)NC(=O)Nc2c3c(cc4c2CCC4)CCC3)n1 [Example 14, N-((1,2,3,5,6,7-Hexahydro-s-indacen-4-yl)carbamoyl)-1-(2-methoxy-2-methylpropyl)-1H-pyrazole-3-sulfonamide]
< 0.4 µM	0.04 to 0.16 µM	O=C(Nc1c2c(cc3c1CCC3)CCC2)NS(=O)(=O)c1ccn(CCO)n1 [Example 8, N-((1,2,3,5,6,7-Hexahydro-s-indacen-4-yl)carbamoyl)-1-(2-hydroxyethyl)-1H-pyrazole-3-sulfonamide]
